Test results taken from patent US20230302159A1, “COMPOUNDS AND COMPOSITIONS FOR TUMOR DETECTION AND SURGICAL GUIDANCE” (Cornell University, priority 2020, published 2023).

What was measured:
[1] = in water; cited from earlier work
[2] = Optical properties of the CypH dyes: absorbance maximum and extinction coefficient in EtOH (Table 1); assay type: physicochemical
Description: (§1) Characterization: All new CypH dyes were characterized by proton NMR and mass spectrometry to confirm identity. NMR data was consistent with the structure and mass spectrometry results gave the expected mass of the dye±0.5 amu. An HPLC method was developed (see below) and used to assess dye purity. […] Retention times on the column generally correlated with lipophilicity of the dyes with water soluble dyes containing sulfate groups eluting out earlier (@10.6 min for CypH-3, 6, 9) than CypH-1 (@11.9 min) and the more lipophilic dyes later. Optical properties of the dyes, acid dissociation constants and solubilities were also determined. Synthetic intermediates were also characterized by proton NMR.

[3] = Solubility of the CypH dyes (Table 1); assay type: physicochemical; conditions: in EtOH
Description: as §1

[4] = Fluorescence properties of the CypH dyes at pH 5.0 and pH 7.5 (Table 2); assay type: physicochemical
Description: The excitation and emission maxima of CypH-1 are 760 and 777 nm, respectively. The signal intensity ratio of pH 5 over pH 7.5 was about 10. The meso-bridge ring size, lipophilicity and electro-density of CypH-1 was modified to provide better optical property. […] The best compound from this group was CypH-5 whose fluorescence ratio of pH 5.0/pH 7.5 was increased to 22. Based on this initial structure and property relationship, the second round of 10 new analogs were designed using CypH-5 as the core, focusing on modifying the electron density on the aniline ring and the indolinium ring. Various alkyl groups, such as methyl, ethyl, propyl, isopropyl and their combinations, were applied to these two positions.
The CypH analogs with other longer alkyl chains had much lower background fluorescence. […] Among them, CypH-11, which has a methyl isopropyl aniline and an isopropyl group on the indolinium ring, gave a 112-fold enhancement in fluorescence signal. CypH-11 has absorbance and emission maxima at 766 nm and 785 nm, respectively (FIG. 4) and was selected as the lead compound (vide infra).

| SMILES | quantum yield (Φ) of standard compound [1] [%] | Ex Coeff (M^−1cm^−1) @ Abs Max ([2]; at absorbance maximum) | Abs. Max (nm) in EtOH ([2]; in EtOH) [nm] | Solubility [3] [mM in] | Ratio Intensity pH 5.0/7.5 ([4]; fluorescence intensity pH 5.0 over pH 7.5) | FL Intensity pH 5.0 ([4]; pH 5.0) | FL Max (nm) pH 5.0 ([4]; pH 5.0) [nm] | FL Intensity pH 7.5 ([4]; pH 7.5) | FL Max (nm) pH 7.5 ([4]; pH 7.5) [nm] |
| --- | --- | --- | --- | --- | --- | --- | --- | --- | --- |
| CC1(C)C(/C=C/C=C/C=C/C=C2\N(CCCCS(=O)(=O)O)c3ccc4ccccc4c3C2(C)C)=[N+](CCCCS(=O)(=O)[O-])c2ccc3ccccc3c21 [indocyanine green] | 1.2 |  |  |  |  |  |  |  |  |
| CCN(C)c1ccc(OC2=C(/C=C/C3=[N+](CC(C)C)c4ccccc4C3(C)C)CCC/C2=C\C=C2\N(CC(C)C)c3ccccc3C2(C)C)cc1.[I-] [CypH-20] |  | 218,600 M^−1cm^−1 | 774 | >1 | 35.1 | 3646 | 794 | 104 | 789 |
